Literature values in US20100055040A1, “Optical Imaging Contrast Agents” (priority 2005, published 2010).

Columns and labels:
[1] = gastrointestinal tract
ulcerated gastric mucosa = conditions: humans; ulcerated vs unulcerated gastric mucosa

absorption by the body [1]: only minimally absorbed
Substance: α-D-glucopyranoside, β-D-fructofuranosyl-, octakis-(hydrogen sulfate), aluminum complex [Sucralfate]
times more sucralfate binds to ulcerated gastric mucosa than to unulcerated mucosa (ulcerated gastric mucosa): six to seven
